Patent US20250326772A1, “MRGPRX2 ANTAGONISTS, PHARMACEUTICAL COMPOSITION INCLUDING MRGPRX2 ANTAGONIST, AND METHOD OF TREATING MRGPRX2-MEDIATED DISEASE OR DISORDER” (KYORIN PHARMACEUTICAL CO., LTD., priority 2024, published 2025)

System: humanized mice (NOG-hGM-CSF/hIL-3 Tg mice)
Assay: Evans blue vascular permeability assay ((R)-Zinc3573-induced, ear)
Type: in vivo
Conditions: 10 mg/kg orally, 30 min before intradermal (R)-Zinc3573 3 μM into the ear; Evans blue dye; mean and standard error of mean
Protocol: Experimental Example 2: Evans Blue Vascular Permeability Assay
Twenty-five to twenty-six-week-old humanized mice (NOG-hGM-CSF/hIL-3 Tg mice at 17-18 weeks after transplantation of human umbilical cord blood-derived CD34+ cells; Central Institute for Experimental Animals) were anesthetized with isoflurane and injected intravenously with 200 μL of 0.5% Evans blue (cat. no. 056-04061; FUJIFILM Wako Pure Chemical Corporation). Subsequently, vehicle (0.5w/v % Methyl Cellulose) or 10 mg/kg of EX.381 were orally administered. After 30 minutes, animals were anesthetized with isoflurane and injected intradermally with 10 μL of (R)-Zinc3573 ((R)-Zinc; 3 μM, cat. no. SML1699; Sigma-Aldrich) into the right ear or with saline (0.1% DMSO) into the left ear as a control. Fifteen minutes after intradermal injection, animals were sacrificed and the ears were collected in 1.5 mL tubes. Evans blue dye was extracted from the tissue by adding 150 μL of N, N-dimethyl formamide (cat. no. 04096-34; nacalai tesque) for 12 hours at 55° C. […] The plate was read at 620 nm and 740 nm on a plate reader and the Evans blue dye concentration in each sample was determined by a standard curve using corrected absorbance (corrected absorbance=A620-A740). […] Data is expressed as mean and standard error of mean. […]

Compound	Inhibition % [%]
[2H]C([2H])([2H])Oc1ccc(C#N)c(-c2c(-c3cn(C)nc3C(F)F)[nH]c3ncccc23)c1 [EX. 381]	76.1 ± 12.1

Biological target: T1, MRGPRX2 (Homo sapiens, UniProt Q96LB1)
T1 sequence (Q96LB1 1-330): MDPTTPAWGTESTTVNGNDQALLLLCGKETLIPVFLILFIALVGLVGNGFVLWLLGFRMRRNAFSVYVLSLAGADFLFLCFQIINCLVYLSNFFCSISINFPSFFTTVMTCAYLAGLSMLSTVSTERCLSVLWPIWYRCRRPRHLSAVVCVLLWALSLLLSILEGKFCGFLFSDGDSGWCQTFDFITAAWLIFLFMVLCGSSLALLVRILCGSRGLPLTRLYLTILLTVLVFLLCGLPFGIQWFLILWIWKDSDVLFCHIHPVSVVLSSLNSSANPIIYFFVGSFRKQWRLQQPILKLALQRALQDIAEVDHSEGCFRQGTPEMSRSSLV
Assay: MRGPRX2 reporter cell assay (NFAT-RE luciferase, Substance P stimulation)
Type: cell-based
Conditions: U2OS cells stably transfected with MRGPRX2 and NFAT-RE luciferase reporter; Substance P at EC80
Summary of the method: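 U2OS cells stably expressing MRGPRX2 and an NFAT-RE luc2P reporter, pre-incubated 30 min at 37° C with compound (0.5% DMSO), then stimulated with Substance P at EC80 for 6 h. Luminescence after ONE-GLO; percent inhibition fitted by four-parameter logistic to IC50.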

IC50 [nM]	Compound
1.9	COC(=O)N[C@]1(C)COc2c(-c3[nH]c4ncccc4c3-c3cccnc3OC(F)F)c(C(F)F)nn2C1 [EX. 492]

Same assay, conditions: U2OS cells stably transfected with MRGPRX2 and NFAT-RE luciferase reporter; Substance P at EC80; class symbols

Compound	IC50 [nM]
Cn1cc(-c2c(-c3c(C(F)F)nn4c3OCC(O)C4)[nH]c3ncccc23)c(OC(F)F)n1 (stereo not drawn) [EX. 426, 3-(3-(3-(difluoromethoxy)-1-methyl-1H-pyrazol-4-yl)-1H-pyrrolo[2,3-b]pyridin-2-yl)-2-(difluoromethyl)-6,7-dihydro-5H-pyrazolo[5,1-b] [1,3]oxazin-6-ol]	< 10
Cn1cc(-c2c(-c3c(C(F)F)nn4c3OC[C@@H](NC(=O)[C@@H]3C[C@H]3F)C4)[nH]c3ncccc23)c(OC(F)F)n1 [EX. 551]	< 10
[2H]C([2H])([2H])Oc1ccc(C#N)c(-c2c(-c3c(C)nn4cccnc34)[nH]c3ncccc23)c1 [EX. 236]	< 10
FC(F)c1nn2c(c1-c1[nH]c3ncccc3c1C1=CCCCC1)OCCC2 [EX. 430]	< 10
Cn1cc(-c2c(-c3c(C(F)F)nn4c3OC[C@@H](NC(=O)[C@H]3CC3(F)F)C4)[nH]c3ncccc23)c(OC(F)F)n1 [EX. 553]	< 10
COc1ccc(C#N)c(-c2c(-c3cn(C)nc3C(F)F)[nH]c3ncccc23)c1 [EX. 113]	< 10
N#Cc1cnccc1-c1c(-c2c(C(F)F)nn3c2OCCC3)[nH]c2ncccc12 [EX. 408]	< 10
COc1ccc(C#N)c(-c2c(-c3c(C)nn4c3OCC(NC(C)=O)C4)[nH]c3ncccc23)c1 (stereo not drawn) [EX. 356]	< 10
N#Cc1ccccc1-c1c(-c2c[nH]nc2OC(F)F)[nH]c2ncccc12 [EX. 157]	< 10
CS(=O)(=O)N[C@@H]1COc2c(-c3[nH]c4ncccc4c3-c3cccnc3OC(F)F)c(C3CC3)nn2C1 [EX. 456]	< 10
CCNC(=O)O[C@@H]1COc2c(-c3[nH]c4ncccc4c3-c3cn(C)nc3OC(F)F)c(C(F)F)nn2C1 [EX. 539]	< 10
[2H]C([2H])([2H])Oc1ccc(C#N)c(-c2c(-c3c(C)nn4c3OCC(O)C4)[nH]c3ncccc23)c1 (stereo not drawn) [EX. 367]	< 10
FC(F)Oc1n[nH]cc1-c1c(-c2c(C(F)F)nn3c2OCCC3)[nH]c2ncccc12 [EX. 406]	100 to 1000
COc1nsc(OC)c1-c1[nH]c2ncccc2c1-c1ccccc1C#N [EX. 137]	< 10
CN(C)S(=O)(=O)N[C@@H]1COc2c(-c3[nH]c4ncccc4c3-c3cn(C)nc3OC(F)F)c(C(F)F)nn2C1 [EX. 576]	< 10
[2H]C([2H])([2H])Oc1ccc(C#N)c(-c2c(-c3c(C(F)F)nn4c3OC[C@H](O)C4)[nH]c3ncccc23)c1 [EX. 370]	< 10

Results, then the compound that gave them:

IC50 [nM]	Compound
< 10	[2H]C([2H])([2H])Oc1ccc(C#N)c(-c2c(-c3cn(C)nc3C(F)F)[nH]c3ncccc23)c1 [EX. 381]
< 10	COc1ccc(C#N)c(-c2c(-c3c(C(F)F)nn4c3OCC4)[nH]c3ncccc23)c1 [EX. 243]
< 10	Cn1cc(-c2c(-c3c(C(F)F)nn4c3OC[C@@H](NC(=O)C3(C(N)=O)CC3)C4)[nH]c3ncccc23)c(OC(F)F)n1 [EX. 585]
< 10	[2H]C([2H])([2H])Oc1ccc(C#N)c(-c2c(-c3c(C(F)F)nn4c3OCC(OC)C4)[nH]c3ncccc23)c1 (stereo not drawn) [EX. 201]
< 10	Cn1nc(-c2[nH]c3ncccc3c2-c2ccccc2C#N)c(C(F)(F)F)n1 [EX. 241]
< 10	CS(=O)(=O)N[C@@H]1COc2c(-c3[nH]c4ncccc4c3-c3ccncc3C#N)c(C(F)F)nn2C1 [EX. 523]
< 10	Cc1cc(-c2c(-c3c(C(F)F)nn4c3OC[C@@H](O)C4)[nH]c3ncccc23)c(Cl)s1 [EX. 479]
< 10	CN(C)CCO[C@@H]1COc2c(-c3[nH]c4ncccc4c3-c3cn(C)nc3OC(F)F)c(C(F)F)nn2C1 [EX. 538]
< 10	FC(F)Oc1nscc1-c1c(-c2c(C(F)F)nn3c2OCCC3)[nH]c2ncccc12 [EX. 402]
< 10	[2H]C([2H])([2H])Oc1ccc(C#N)c(-c2c(-c3c(C)nn4c3OCCC4C)[nH]c3ncccc23)c1 (stereo not drawn) [EX. 170]
100 to 1000	COc1ccc(F)cc1-c1[nH]c2ncccc2c1C1=CCCCC1 [EX. 301, 3-(cyclohex-1-en-1-yl)-2-(5-fluoro-2-methoxyphenyl)-1H-pyrrolo[2,3-b]pyridine]
< 10	[2H]C([2H])([2H])Oc1ccc(C#N)c(-c2c(-c3c(C)nn4c3OCC[C@@H]4C)[nH]c3ncccc23)c1 [EX. 176]
< 10	Cc1cc(-c2c(-c3c(C)nn4c3OC[C@@H](OCCO)C4)[nH]c3ncccc23)c(C#N)s1 [EX. 504]
< 10	C[C@@]1(O)COc2c(-c3[nH]c4ncccc4c3-c3cccnc3OC(F)F)c(C3CC3)nn2C1 [EX. 440]
< 10	COC(=O)N[C@]1(C)COc2c(-c3[nH]c4ncccc4c3-c3cccnc3OC(F)F)c(C(F)F)nn2C1 [EX. 492]
< 10	Cn1cc(-c2c(-c3c(C(F)F)nn4c3OC[C@@H](N3CCOC3=O)C4)[nH]c3ncccc23)c(OC(F)F)n1 [EX. 579]
< 10	C[C@H](O)COC(=O)N[C@@H]1COc2c(-c3[nH]c4ncccc4c3-c3cn(C)nc3OC(F)F)c(C(F)F)nn2C1 [EX. 567]
< 10	O[C@@H]1COc2c(-c3[nH]c4ncccc4c3-c3csnc3OC(F)F)c(C(F)F)nn2C1 [EX. 461]
